Reference: patent publication US6242224A, “Maltohexaose and maltoheptaose-forming amylase, and its preparation and uses” (Kabushiki Kaisha Mayashibara Seibutsu Kagaku Kenkyujo, priority 1994, dated 2001)

System: AMYLASE
Assay: Inhibition or promotion of AMYLASE activity by ions and EDTA
Format: biochemical, Alcaligenes latus D2271
Conditions: for inhibition of enzyme activity: one mM metal ion
Description: The activity of the present AMYLASE is assayed as follows: 0.2 ml of an enzyme solution is added to 5 ml of 0.3 w/v % soluble starch in 20 mM phosphate buffer (pH 5.5) containing 1 mM CaCl2), and the mixture solution is incubated at 40° C. for 10 min, followed by sampling 0.5 ml of the resultant solution, and adding the solution to 15 ml of 0.02N sulfate solution to suspend the enzymatic reaction. The resultant is mixed with 0.2 ml of 0.1N iodine solution, stirred, allowed to stand at 25° C. for 15 min, and its absorbance at a wave length of 660 nm determined. One unit activity of the present AMYLASE is defined as the amount of enzyme which diminishes the iodine coloration of 15 mg soluble starch when reacted at 40° C. for 10 min.
Effects of temperature and pH on the enzyme activity were studied in the presence of calcium chloride in accordance with the assay as used for determining the enzyme activity. […] The thermal stability of the enzyme was determined by incubating it in 20 mM acetate buffer containing 5 mM calcium chloride (pH 6.0) at different temperatures for 60 min, cooling the buffers, and assaying the remaining enzyme activity in each buffer. The pH stability of the enzyme was determined by incubating it in 20 mM acetate buffer having different pHs at 40° C. for one hour, adjusting the buffer to pH 6.0, and assaying the remaining enzyme activity in each buffer.

Row | Compound | inhibition of enzyme activity | promotion of activity and stabilization of AMYLASE (calcium ion)
1 | [Pb+2] [lead ion] | inhibited | –
2 | [Hg+2] [mercury ion] | inhibited | –
3 | [Zn+2] [zinc ion] | inhibited | –
4 | [Cu+2] [copper ion] | inhibited | –
5 | [Ca+2] [calcium ion] | – | promoted its activity and stabilized
